From patent US9271978B2 (Zenith Epigenetics Corp., priority 2012, dated 2016)

Legend:
[1] = molecular target: T1, Brd4 bromodomain 1 (BRD4(1)) (Homo sapiens, UniProt O60885); assay: Inhibition of tetra-acetylated histone H4 binding to Brd4 bromodomain 1 (TR-FRET); set-up: key: Active: Compounds with an IC50 value less than 30 μM were deemed to be active.; Not Active: Compounds with an IC50 value less than 30 μM were deemed to be active; conditions: tetra-acetylated histone H4 peptide, active = IC50 <30 μM
T1 construct: Illustrative results with the first bromodomain of Brd4; made in house; host or cells: E. coli BL21 (DE3)
Experimental: (§1) Proteins were cloned and overexpressed with a N-terminal 6×His tag, then purified by nickel affinity followed by size exclusion chromatography. Briefly, E. coli BL21 (DE3) cells were transformed with a recombinant expression vector encoding N-terminally Nickel affinity tagged bromodomains from Brd2, Brd3, Brd4. Cell cultures were incubated at 37° C. with shaking to the appropriate density and induced overnight with IPTG. The supernatant of lysed cells was loaded onto Ni-IDA column for purification. Eluted protein is pooled, concentrated and further purified by size exclusion chromatography. Fractions representing monomeric protein were pooled, concentrated, aliquoted, and frozen at −80° C. for use in subsequent experiments.
(§2) Binding of tetra-acetylated histone H4 and BET bromodomains was confirmed by a Time Resolved Fluorescence Resonance Energy Transfer (TR-FRET) method. N-terminally His-tagged bromodomains (200 nM) and biotinylated tetra-acetylated histone H4 peptide (25-50 nM, Millipore) were incubated in the presence of Europium Cryptate-labeled streptavidin (Cisbio Cat. #610SAKLB) and XL665-labeled monoclonal anti-His antibody (Cisbio Cat. #61HISXLB) in a white 96 well microtiter plate (Greiner). For inhibition assays, serially diluted test compound was added to these reactions in a 0.2% final concentration of DMSO. Final buffer concentrations were 30 mM HEPES pH 7.4, 30 mM NaCl, 0.3 mM CHAPS, 20 mM phosphate pH 7.0, 320 mM KF, 0.08% BSA). After a 2-h incubation at room temperature, the fluorescence by FRET was measured at 665 and 620 nm by a SynergyH4 plate reader (Biotek). Illustrative results with the first bromodomain of Brd4 and the second bromodomain of Brd2 are shown below. The binding inhibitory activity was shown by a decrease in 665 nm fluorescence relative to 620 nm. IC50 values were determined from a dose response curve.

[2] = molecular target: T2, second bromodomain of Brd2 (BRD2(2)) (Homo sapiens, UniProt P25440); assay: Inhibition of tetra-acetylated histone H4 binding to Brd2 bromodomain 2 (TR-FRET); set-up: key: Active: Compounds with an IC50 value less than 30 μM were deemed to be active.; Not Active: Compounds with an IC50 value less than 30 μM were deemed to be active; conditions: tetra-acetylated histone H4 peptide, active = IC50 <30 μM
T2 construct: made in house; host or cells: E. coli BL21 (DE3)
Experimental: as §1, §2

T2 sequence (P25440 344-453 limits assumed): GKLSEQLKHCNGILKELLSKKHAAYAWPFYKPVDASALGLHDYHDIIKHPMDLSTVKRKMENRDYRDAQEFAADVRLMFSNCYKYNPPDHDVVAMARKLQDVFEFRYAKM

Structure (SMILES) | FRET activity (IC50 <30 μM) BRD4(1) [1] | FRET activity (IC50 <30 μM) BRD2(2) [2]
Cc1noc(C)c1-c1ccc(=O)n(Cc2cc(F)c(F)c(F)c2)n1 [Example 144, 6-(3,5-Dimethylisoxazol-4-yl)-2-(3,4,5-trifluorobenzyl)pyridazin-3(2H)-one] | Active | Active
Cc1noc(C)c1Cn1cc(-c2c(C)noc2C)ccc1=O [Example 11, 5-(3,5-Dimethylisoxazol-4-yl)-1-((3,5-dimethylisoxazol-4-yl)methyl)pyridin-2(1H)-one] | Active | Active
Cc1noc(C)c1-c1ccc(=O)n(CC2CC2)n1 [Example 45, 2-(Cyclopropylmethyl)-6-(3,5-dimethylisoxazol-4-yl)pyridazin-3(2H)-one] | Active | Active
Cc1ccc(Cn2cc(-c3c(C)noc3C)ccc2=O)cc1 [Example 41, 5-(3,5-Dimethylisoxazol-4-yl)-1-(4-methylbenzyl)pyridin-2(1H)-one] | Active | Active
Cc1cc(=O)n(Cc2ccccc2)cc1-c1c(C)noc1C [Example 12, 1-Benzyl-5-(3,5-dimethylisoxazol-4-yl)-4-methylpyridin-2(1H)-one] | Active | Active
Cc1cc(F)cc(Cn2nc(-c3c(C)noc3C)ccc2=O)c1 [Example 32, 6-(3,5-Dimethylisoxazol-4-yl)-2-(3-fluoro-5-methylbenzyl)pyridazin-3(2H)-one] | Not Active | Active
O=c1ccc(-c2ccnc(O)c2)cn1Cc1ccccc1 [Example 62, 1-Benzyl-2′-hydroxy-[3,4′-bipyridin]-6(1H)-one] | Not Active | Active
COc1cccc(Cn2nc(-c3c(C)noc3C)ccc2=O)c1 [Example 35, 6-(3,5-Dimethylisoxazol-4-yl)-2-(3-methoxybenzyl)pyridazin-3(2H)-one] | Active | Active
Cc1noc(C)c1-c1cnc(=O)n(Cc2ccccc2)c1 [Example 8, 1-Benzyl-5-(3,5-dimethylisoxazol-4-yl)pyrimidin-2(1H)-one] | Active | Active
Cc1oncc1-c1cc(C)c(=O)n(Cc2ccccc2)n1 [Example 20, 2-Benzyl-4-methyl-6-(5-methylisoxazol-4-yl)pyridazin-3(2H)-one] | Not Active | Active
COc1ccc(-c2nn(Cc3ccccc3)c(=O)c3ccccc23)c(OC)c1OC [Example 177, 2-Benzyl-4-(2,3,4-trimethoxyphenyl)phthalazin-1(2H)-one] | Active | Active
Cc1noc(C)c1-c1cc(C)c(=O)n(CC2CC2)n1 [Example 85, 2-(Cyclopropylmethyl)-6-(3,5-dimethylisoxazol-4-yl)-4-methylpyridazin-3(2H)-one] | Active | Active
Cc1noc(C)c1-c1ccc(=O)n(Cc2cnoc2)n1 [Example 97, 6-(3,5-Dimethylisoxazol-4-yl)-2-(isoxazol-4-ylmethyl)pyridazin-3(2H)-one] | Active | Not Active
Cc1noc(C)c1-c1ccc(=O)n(Cc2ncccn2)c1 [Example 163, 5-(3,5-Dimethylisoxazol-4-yl)-1-(pyrimidin-2-ylmethyl)pyridin-2(1H)-one] | Active | Active
Cc1noc(C)c1-c1ccc(=O)n(Cc2ccc(S(C)(=O)=O)cc2)c1 [Example 145, 5-(3,5-Dimethylisoxazol-4-yl)-1-(4-(methylsulfonyl)benzyl)pyridin-2(1H)-one] | Active | Active
Cc1noc(C)c1-c1ccc(=O)n(S(=O)(=O)c2ccc(Cl)cc2)c1 [Example 150, 1-((4-Chlorophenyl)sulfonyl)-5-(3,5-dimethylisoxazol-4-yl)pyridin-2(1H)-one] | Active | Not Active
Cc1noc(C)c1-c1ccc(=O)n(Cc2ccccc2OC(F)(F)F)c1 [Example 40, 5-(3,5-Dimethylisoxazol-4-yl)-1-(2-(trifluoromethoxy)benzyl)pyridin-2(1H)-one] | Active | Active
Cc1noc(C)c1-c1cc(NCc2ccccc2)c(=O)n(Cc2ccccc2)c1 [Example 74, 1-Benzyl-3-(benzylamino)-5-(3,5-dimethylisoxazol-4-yl)pyridin-2(1H)-one] | Active | Active
Cc1noc(C)c1-c1ccc(=O)n(Cc2ccc(CN(C)C)cc2)c1 [Example 9, 1-(4-((Dimethylamino)methyl)benzyl)-5-(3,5-dimethylisoxazol-4-yl)pyridin-2(1H)-one hydrochloric acid] | Active | Active
Cc1noc(C)c1-c1ccc(=O)n(Cc2ccc(F)cc2Cl)c1 [Example 140, 1-(2-Chloro-4-fluorobenzyl)-5-(3,5-dimethylisoxazol-4-yl)pyridin-2(1H)-one] | Active | Active
Cc1noc(C)c1-c1ccc(=O)n(CC2CCOCC2)n1 [Example 37, 6-(3,5-Dimethylisoxazol-4-yl)-2-((tetrahydro-2H-pyran-4-yl)methyl)pyridazin-3(2H)-one] | Active | Active
Cc1noc(C)c1-c1ccc(=O)n(Cc2ccc3[nH]cnc3c2)n1 [Example 143, 2-((1H-Benzo[d]imidazol-5-yl)methyl)-6-(3,5-dimethylisoxazol-4-yl)pyridazin-3(2H)-one] | Active | Active
COc1ccc(Oc2ccc(=O)n(Cc3ccccc3)n2)cc1OC [Example 100, 2-Benzyl-6-(3,4-dimethoxyphenoxy)pyridazin-3(2H)-one] | Not Active | Active
Cc1n[nH]c(C)c1-c1ccc(=O)n(Cc2ccccc2)n1 [Example 86, 2-Benzyl-6-(3,5-dimethyl-1H-pyrazol-4-yl)pyridazin-3(2H)-one] | Active | Active
Cc1noc(C)c1-c1ccc(=O)n(Cc2cccc(Cl)c2)n1 [Example 23, 2-(3-Chlorobenzyl)-6-(3,5-dimethylisoxazol-4-yl)pyridazin-3(2H)-one] | Active | Active
Cc1noc(C)c1-c1ccc(=O)n(Cc2ccc3ccccc3c2)n1 [Example 77, 6-(3,5-Dimethylisoxazol-4-yl)-2-(naphthalen-2-ylmethyl)pyridazin-3(2H)-one] | Active | Active
O=c1ccc(-c2cnsc2)cn1Cc1ccccc1 [Example 59, 1-Benzyl-5-(isothiazol-4-yl)pyridin-2(1H)-one] | Not Active | Active
Cc1noc(C)c1-c1ccc(=O)n(Cc2ccccc2)c1C [Example 115, 1-Benzyl-5-(3,5-dimethylisoxazol-4-yl)-6-methylpyridin-2(1H)-one] | Active | Active
